Source: patent US20090232909A1, “Method for determining physiological effects of hemoglobin” (priority 1999, published 2009)
Entries after “also recorded” stand apart in the source; their conditions may differ.

Columns and labels:
Hb [1] = biological target: T1, Hb (Homo sapiens, UniProt P68871+P69905); details: cited from earlier work
Hb [2] = biological target: T1, Hb; assay: Titration of normoxic Hb with NO, fitted UV-visible difference spectra; format: biochemical; parameters: purchased Apex Bioscience (Research Triangle Park, N.C.)
Procedure: Air-oxygenated Hb was titrated with 0.22 μM NO. Samples were analyzed immediately after NO addition by UV-visible spectrophotometry. Time between additions varied from 3 to 5 minutes.
The extinction coefficient spectra of metHb, deoxyhb, iron nitrosylHb and oxyHb were generated from pure solutions of each species. HbA was diluted into PBS (pH 7.4) to a known final heme concentration [as calculated by the pyridine-hemochromagen method (Antonini, E., et al., p. 13 in Frontiers in Biology, Neuberger, A. and Tatum, E. L. eds., North-Holland Publishing, Co., Amsterdam, London, 1971)]. MetHb was synthesized by adding excess K3FeCN6. DeoxyHb was measured after the addition of dithionite, and nitrosyl- and oxyHb were measured following saturation with each ligand.
Difference spectra were obtained by subtracting the UV-visible spectrum of a given sample before the addition of NO from those after. The simple competition model discussed above, predicts that such difference spectra could be approximated by a linear combination of two standard difference spectra: an oxyHb minus metHb spectrum, which gauges the progress of the NO oxidation reaction, and a deoxyHb minus iron nitrosyHb, which gauges the NO addition reaction; the sum of the combining coefficients is fixed by the mass balance ([NO]0). Standard difference spectra were obtained from UV-visible spectra of authentic samples of metHb, oxyHb, nitrosylHb, and deoxyHb. We determined combining coefficients by a least-squares fitting procedure. Inasmuch as the deoxy- and/or oxyheme concentrations can decline during the competition, an additional component (deoxyHb minus oxyHb) could be expected.
(A) Nitrosyl content of oxyHb (10 mM phosphate 100 μM DTPA, pH 7.4) after exposure to 1.2 μM NO, as measured by photolysis-chemiluminescence (Stamler, J. S., et al., Science, 276:2034-2037, 1997). Nitrosyl yield increases as a function of Hb concentration (P<0.05). Solid symbols, absolute yield of NO bound to Hb (FeNO plus SNO); open symbols, percentage of NO added. Data shown are the average of 7 to 19 experiments±SE. (B) Standard difference spectra of metHb (solid line), deoxyHb (dotted line), and iron nitrosylHb (dashed line) vs. oxyHb. (C) Difference spectra generated from the exposure of NO to normoxic (≈99% oxygen saturation) Hb. NO was added (in 10 aliquots totaling 2.2 μM) to 33 μM Hb in 100 mM phosphate (solid line) or 10 mM phosphate (dotted line) or 10 mM phosphate plus 0.05% borate (dashed line). […] Specifically, spectra in C were fitted, by a least-squares process, to either the simple competition model or the cooperativity model without a mass balance constraint. Cooperativity is present if add increases above that reported in the literature, as a function of oxygen tension.

RBC membrane thiols = assay: Alkylation of IOV proteins with 14C-iodoacetamide; format: biochemical; details: DIDS-modified vs unmodified IOVs
Description: FIG. 8G is a fluorographic image of proteins on an SDS-polyacrylamide gel following electrophoresis. […] The position of AE1 on the gel, determined by Western blotting, is indicated. (n=3-8 for A-F).
Thus, inhibition of transnitrosylation by DIDS supports the conclusion that AE1 is the principal acceptor of NO groups transferred from SNO-Hb to the RBC membrane.

Row | SMILES | rate constant of NO-mediated oxidation of oxyHb to metHb (Hb [1]) | rate constant of binding of NO to unoccupied hemes in Hb (Hb [1]) | iron nitrosylHb in fitted difference spectrum (Hb [2]; 2.2 μM NO, 33 μM Hb, 10 mM phosphate, ≈99% O2) | metHb in fitted difference spectrum (Hb [2]; 2.2 μM NO, 33 μM Hb, 100 mM phosphate, ≈99% O2) | added NO accounted for by the spectra (Hb [2]; 10 mM (low) phosphate) | iron nitrosylHb in fitted difference spectrum (Hb [2]; 10 mM phosphate plus 0.05% borate) | added NO accounted for by the spectra (Hb [2]; low phosphate plus borate) | direct modification of sulfhydryls (RBC membrane thiols)
1 | [N]=O [NO, nitric oxide] | 3.7e+07 M⁻¹ s⁻¹ | 2.6e+07 M⁻¹ s⁻¹ | 54% | 95% | 50% | 85% | 80% | –
2 | O=S(=O)(O)c1cc(N=C=S)ccc1C=Cc1ccc(N=C=S)cc1S(=O)(=O)O [DIDS, 4,4′-diisothiocyanatostilbene-2,2′-disulfonic acid] | – | – | – | – | – | – | – | did not modify sulfhydryls directly; also recorded: does not directly reduce reactivity
